Reference: the supplement of paper PMC10307832

How the values were obtained:
Experiment in all cases: relative viability (nuclei count vs DMSO), 5 days (fraction); higher = more cells survive
JZL-184 + Bortezomib = compound: C1CN(CCC1C(C2=CC3=C(C=C2)OCO3)(C4=CC5=C(C=C4)OCO5)O)C(=O)OC6=CC=C(C=C6)[N+](=O)[O-] [JZL-184] + CC(C)C[C@H](NC(=O)[C@H](Cc1ccccc1)NC(=O)c1cnccn1)B(O)O [Bortezomib] (partner 0.002 µM)
Outline: (§1)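 Dosing by pin tool came one day after lung cancer cell lines were seeded in 1536-well plates, using either one drug or a fixed anchor-drug dose plus five library-drug doses (not always all listed) in √10 steps. After 5 days, nuclei were counted on 4× images. Relative viability is treated-well nuclei count divided by vehicle-well nuclei count, and values are medians of duplicate plates.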

JZL-184 + Luminespib = compound: C1CN(CCC1C(C2=CC3=C(C=C2)OCO3)(C4=CC5=C(C=C4)OCO5)O)C(=O)OC6=CC=C(C=C6)[N+](=O)[O-] [JZL-184] + CCNC(=O)c1noc(-c2cc(C(C)C)c(O)cc2O)c1-c1ccc(CN2CCOCC2)cc1 [Luminespib] (partner 0.01 µM)
Outline: as §1

JZL-184 + Foretinib = compound: C1CN(CCC1C(C2=CC3=C(C=C2)OCO3)(C4=CC5=C(C=C4)OCO5)O)C(=O)OC6=CC=C(C=C6)[N+](=O)[O-] [JZL-184] + COc1cc2c(Oc3ccc(NC(=O)C4(C(=O)Nc5ccc(F)cc5)CC4)cc3F)ccnc2cc1OCCCN1CCOCC1 [Foretinib] (partner 0.25 µM)
Outline: as §1

JZL-184 + Tozasertib = compound: C1CN(CCC1C(C2=CC3=C(C=C2)OCO3)(C4=CC5=C(C=C4)OCO5)O)C(=O)OC6=CC=C(C=C6)[N+](=O)[O-] [JZL-184] + Cc1cc(Nc2cc(N3CCN(C)CC3)nc(Sc3ccc(NC(=O)C4CC4)cc3)n2)n[nH]1 [Tozasertib] (partner 0.1 µM)
Outline: as §1

JZL-184 + Vorinostat = compound: C1CN(CCC1C(C2=CC3=C(C=C2)OCO3)(C4=CC5=C(C=C4)OCO5)O)C(=O)OC6=CC=C(C=C6)[N+](=O)[O-] [JZL-184] + O=C(CCCCCCC(=O)Nc1ccccc1)NO [Vorinostat] (partner 1 µM)
Outline: as §1

Cell Line	relative viability (JZL-184 + Bortezomib; first compound 0.04 µM)	relative viability (JZL-184 + Bortezomib; first compound 0.4 µM)	relative viability (JZL-184 + Bortezomib; first compound 1.265 µM)	relative viability (JZL-184 + Bortezomib; first compound 4 µM)	relative viability (JZL-184 + Luminespib; first compound 0.04 µM)	relative viability (JZL-184 + Luminespib; first compound 0.4 µM)	relative viability (JZL-184 + Luminespib; first compound 1.265 µM)	relative viability (JZL-184 + Luminespib; first compound 4 µM)	relative viability (JZL-184 + Foretinib; first compound 0.04 µM)	relative viability (JZL-184 + Foretinib; first compound 0.4 µM)	relative viability (JZL-184 + Foretinib; first compound 1.265 µM)	relative viability (JZL-184 + Foretinib; first compound 4 µM)	relative viability (JZL-184 + Tozasertib; first compound 0.04 µM)	relative viability (JZL-184 + Tozasertib; first compound 0.4 µM)	relative viability (JZL-184 + Tozasertib; first compound 1.265 µM)	relative viability (JZL-184 + Tozasertib; first compound 4 µM)	relative viability (JZL-184 + Vorinostat; first compound 0.04 µM)	relative viability (JZL-184 + Vorinostat; first compound 0.4 µM)	relative viability (JZL-184 + Vorinostat; first compound 1.265 µM)	relative viability (JZL-184 + Vorinostat; first compound 4 µM)
HARA	1.11	0.967	1.17	1.09	0.808	0.739	1.03	0.757	1.16	0.569	0.968	0.924	0.134	0.0806	0.107	0.108	0.608	0.557	0.681	0.395
HCC-15	1.11	0.987	1.03	0.995	0.421	0.294	0.343	0.339	1.25	1.01	1.11	1.03	0.521	0.415	0.407	0.331	0.918	0.796	0.919	0.773
HCC-44	0.8	0.878	0.836	0.856	1.59	0.973	1.09	1.09					1.27	0.805	1.26	0.983	1.28	1.05	1.13	1.06
HCC-78	0.384	0.521	0.667	0.516					0.558	0.526	0.515	0.475	0.402	0.413	0.388	0.318	0.405		0.492	0.378
